One assay has as its target T1, ChemR23 (Homo sapiens, UniProt Q99788).
T1 construct: host or cells: Chem-1 cells with Gα15
The assay can be described thus: GPCR Profiler. Type of assay: cell-based.

In the next assay the target is T2, AKT2 (Homo sapiens, UniProt P31751).
T2 construct: purchased DiscoveRx (Fremont, CA)
The experiment in a line: KinomeScan. Format: binding. The note with it: read-out: % Control.

Another assay addresses T3, YANK1 (Homo sapiens, UniProt Q8WU08).
T3 construct: purchased DiscoveRx
The assay can be described thus: KinomeScan. The note with it: read-out: % Control. Type of assay: binding.

For the next assay, the target named is T4, D1 (Homo sapiens, UniProt P21728).
T4 construct: host or cells: Chem-1 cells with Gα15
The assay can be described thus: GPCR Profiler. Format: cell-based.

The next assay has as its system FLT3(ITD). The assay can be described thus: KinomeScan. Type of assay: binding. As to conditions: 10 uM.
The next assay has as its target T5, LRRK2(G2019S) (Homo sapiens, UniProt Q5S007, G2019S).
T5 construct: purchased DiscoveRx
The experiment in a line: KinomeScan. Type of assay: binding. As to conditions: read-out: % Control.

The next assay addresses GPR68 (Homo sapiens, UniProt Q15743). The assay can be described thus: GPCR Profiler. Format: cell-based. On the set-up: host or cells: Chem-1 cells (Chem1-OGR1).
For a further assay, the target named is T6, FER (Homo sapiens, UniProt P16591).
T6 construct: purchased DiscoveRx (Fremont, CA)
The experiment in a line: KinomeScan. Type of assay: binding. As to conditions: read-out: % Control.

A further assay addresses T7, MST1 (Homo sapiens, UniProt Q13043).
T7 construct: purchased DiscoveRx
The assay can be described thus: KinomeScan. Type of assay: binding. The note with it: read-out: % Control.

The next assay deals with T8, Secretin (Homo sapiens, UniProt P47872).
T8 construct: host or cells: Chem-1 cells with Gα15
The experiment in a line: GPCR Profiler. Format: cell-based.

The target in a further assay is T9, NEK2 (Homo sapiens, UniProt P51955).
T9 construct: purchased DiscoveRx
The experiment in a line: KinomeScan. As to conditions: read-out: % Control. Type of assay: binding.

Assay [1] deals with T10, RSK4(Kin.Dom.2-C-terminal) (Homo sapiens, UniProt Q9UK32).
T10 construct: RSK4(Kin.Dom.2-C-terminal); purchased DiscoveRx (Fremont, CA)
The assay can be described thus: KinomeScan. Type of assay: binding. The note with it: read-out: % Control.

The next assay has as its target T11, MKNK2 (Homo sapiens, UniProt Q9HBH9).
T11 construct: purchased DiscoveRx
The experiment in a line: KinomeScan. Format: binding. As to conditions: read-out: % Control.

Another assay has as its target T12, KIT(V559D) (Homo sapiens, UniProt P10721, V559D).
T12 construct: purchased DiscoveRx
The assay can be described thus: KinomeScan. Format: binding. The note with it: read-out: % Control.

The target of assay [2] is T13, ABL1(F317L)-nonphosphorylated (Homo sapiens, UniProt P00519, F317L).
T13 construct: purchased DiscoveRx
The experiment in a line: KinomeScan. Type of assay: binding. As to conditions: read-out: % Control.

The target of another assay is T14, DAPK2 (Homo sapiens, UniProt Q9UIK4).
T14 construct: purchased DiscoveRx (Fremont, CA), KinomeScan service
The assay can be described thus: KinomeScan. Type of assay: binding. The note with it: read-out: % Control.

The target in another assay is T15, MRGX2 (Homo sapiens, UniProt Q96LB1).
T15 construct: host or cells: Chem-1 cells expressing Gα15
The assay can be described thus: GPCR Profiler. Type of assay: cell-based.

The target of a further assay is T16, EGFR(G719C) (Homo sapiens, UniProt P00533, G719C).
T16 construct: purchased DiscoveRx (Fremont, CA), KinomeScan service
The experiment in a line: KinomeScan. Format: binding. As to conditions: read-out: % Control.

The test system of the next assay is endothelial cell (EC). The experiment in a line: Acidification-induced endothelial cell dysfunction. Type of assay: cell-based. The method, then:
FIG. 34A through FIG. 34C: GPR68 plays a central role in acidification-induced endothelial cell (EC) dysfunction in vitro, and OGM2 abrogates EC dysfunction. […] These effects were abolished by OGM2 (OGM) at 3 uM and augmented by GPR68 positive allosteric modulator Ogerin (Og) at 2 uM. *P<0.05; Mann-Whitney test, n=5. FIG. 34C: Medium acidification reduced transendothelial resistance (TER), indicative of disruption of EC barrier function.

The test system of the next assay is T-47D. The experiment in a line: Cell Titer-Glo viability, Breast cancer. Format: cell-based. How it is done:
OGM2 kills wide variety of cancer cell types. Cell sensitivity can be classified in to Very Sensitive (LC50<2 μM), Sensitive (LC50=2 to 10 μM), Mildly Sensitive (LC50>10 μM), and Refractory (no killing at 10 μM). The listed established cell were incubated with OGM2 at 2 μM or 10 μM for 72 hours under standard cell culture conditions, and relative cell number was assessed using Cell Titer-Glo Luminescent Cell Viability Assay (Promega™) following the manufacturer's instructions. Luminescence was determined using a Cytation 5 reader and Gen5 software package (BioTek™).
Cancer cells, which are very sensitive to killing by OGM2 (LCs <2 μM), with reported mRNA expression of GPR68 and the related proton sensing receptor GPR4. LC50's (concentrations causing 50% lethality) were determined using CellTiter-Glo (Promega™, G7570). Cells were plated in 12-well plates (CELLTREAT Scientific Products, 229112) in 1 ml of DMEM with high glucose, GlutaMAX, HEPES, or RPMI 1640 with Penicillin-Streptomycin (ThermoFisher™, 10564029, 11875119 and 15140122) and 10% FBS. Cells were incubated overnight at 37° C. in 5% CO2. Then 1 mL of fresh media was added with DMSO, OGM, or positive control (Erastin; APExBIO Technology, LLC, B1524) and cells incubated for 3 days. On the third day, all media was removed, cells were rinsed with 1×PBS, PBS was removed, and 200 μL of 1× Passive Lysis Buffer (Promega™, E1941) was added to each well. […]. Subsequently, 20 μL of lysate was added to 100 μL CellTiter-Glo™ reagent on a LUMITRAC 200 plate (Greiner™ bio-one, 82050-726). Plates were briefly spun down and read on a GloMax-Multi Detection System (Promega™).
The cells listed in the tables above were incubated with OGM2 at 2 μM or 10 μM for 72 hours under standard cell culture conditions, and relative cell number was assessed using Cell Titer-Glo Luminescent Cell Viability Assay (Promega™) following the manufacturer's instructions. Luminescence was determined using a Cytation 5 reader and Gen5 software package (BioTek™). RNA expression of GPR68 and GPR4 in the corresponding cancer cell lines are listed, according to the publicly available The Human Protein Atlas version 22.0 and Ensembl version 103.38 (see proteinatlas.org). The consensus normalized expression value (“nTPM”=normalize transcript per million) was calculated as the maximum nTPM value for each gene in the two data sources.

T8 sequence (P47872 23-440): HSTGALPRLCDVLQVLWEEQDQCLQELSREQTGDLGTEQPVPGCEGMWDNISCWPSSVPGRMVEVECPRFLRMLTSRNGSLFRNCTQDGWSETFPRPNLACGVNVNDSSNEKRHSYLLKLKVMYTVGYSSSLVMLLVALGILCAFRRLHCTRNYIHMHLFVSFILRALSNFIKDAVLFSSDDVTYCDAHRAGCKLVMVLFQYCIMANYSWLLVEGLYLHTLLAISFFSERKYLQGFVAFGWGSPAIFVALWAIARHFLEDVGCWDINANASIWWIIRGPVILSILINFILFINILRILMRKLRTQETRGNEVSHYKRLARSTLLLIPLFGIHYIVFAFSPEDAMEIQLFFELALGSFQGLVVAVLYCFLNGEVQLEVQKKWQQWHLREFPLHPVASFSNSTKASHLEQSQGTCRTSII
T4 sequence (P21728 whole entry): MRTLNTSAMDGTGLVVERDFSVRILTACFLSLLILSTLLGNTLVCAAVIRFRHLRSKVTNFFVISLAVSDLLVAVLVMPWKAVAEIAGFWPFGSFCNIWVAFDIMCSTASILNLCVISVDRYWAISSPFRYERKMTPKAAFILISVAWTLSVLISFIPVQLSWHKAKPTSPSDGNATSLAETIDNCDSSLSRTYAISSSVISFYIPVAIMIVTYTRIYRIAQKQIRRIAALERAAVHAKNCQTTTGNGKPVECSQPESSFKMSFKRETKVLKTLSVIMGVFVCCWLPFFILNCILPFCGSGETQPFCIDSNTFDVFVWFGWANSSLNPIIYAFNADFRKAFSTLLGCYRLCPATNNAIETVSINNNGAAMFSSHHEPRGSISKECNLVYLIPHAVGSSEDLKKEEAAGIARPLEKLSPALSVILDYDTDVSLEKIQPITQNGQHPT
Chain of GPR68 (Q15743 whole entry): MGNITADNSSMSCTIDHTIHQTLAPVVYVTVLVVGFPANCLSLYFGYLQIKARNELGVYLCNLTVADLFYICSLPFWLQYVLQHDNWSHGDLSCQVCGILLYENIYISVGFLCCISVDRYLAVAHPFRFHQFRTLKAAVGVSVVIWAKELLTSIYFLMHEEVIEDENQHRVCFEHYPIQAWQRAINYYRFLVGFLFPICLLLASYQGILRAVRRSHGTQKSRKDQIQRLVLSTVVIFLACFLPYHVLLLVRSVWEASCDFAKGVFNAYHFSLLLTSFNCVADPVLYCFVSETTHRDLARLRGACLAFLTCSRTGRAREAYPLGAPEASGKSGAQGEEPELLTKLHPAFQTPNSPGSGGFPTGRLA
T15 sequence (Q96LB1 whole entry, species assumed): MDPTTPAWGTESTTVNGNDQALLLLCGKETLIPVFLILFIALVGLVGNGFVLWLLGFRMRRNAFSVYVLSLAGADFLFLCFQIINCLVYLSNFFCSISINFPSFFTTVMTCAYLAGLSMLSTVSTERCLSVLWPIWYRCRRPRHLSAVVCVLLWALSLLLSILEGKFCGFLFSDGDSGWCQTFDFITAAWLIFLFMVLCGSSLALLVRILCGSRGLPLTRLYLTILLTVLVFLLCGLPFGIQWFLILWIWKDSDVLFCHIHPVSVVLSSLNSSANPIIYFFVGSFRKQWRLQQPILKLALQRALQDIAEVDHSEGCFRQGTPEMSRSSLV
T1 sequence (Q99788 whole entry, species assumed): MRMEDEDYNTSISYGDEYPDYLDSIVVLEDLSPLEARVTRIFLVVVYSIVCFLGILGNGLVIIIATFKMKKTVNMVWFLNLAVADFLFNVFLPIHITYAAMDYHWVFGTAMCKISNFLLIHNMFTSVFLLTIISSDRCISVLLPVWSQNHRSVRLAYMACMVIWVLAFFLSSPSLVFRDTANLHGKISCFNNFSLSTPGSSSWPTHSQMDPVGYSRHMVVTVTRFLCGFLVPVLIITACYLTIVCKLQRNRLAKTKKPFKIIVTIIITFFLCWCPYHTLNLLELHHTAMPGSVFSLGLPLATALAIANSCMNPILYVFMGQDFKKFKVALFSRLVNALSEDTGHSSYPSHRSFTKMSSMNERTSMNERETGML
T3 sequence (Q8WU08 whole entry): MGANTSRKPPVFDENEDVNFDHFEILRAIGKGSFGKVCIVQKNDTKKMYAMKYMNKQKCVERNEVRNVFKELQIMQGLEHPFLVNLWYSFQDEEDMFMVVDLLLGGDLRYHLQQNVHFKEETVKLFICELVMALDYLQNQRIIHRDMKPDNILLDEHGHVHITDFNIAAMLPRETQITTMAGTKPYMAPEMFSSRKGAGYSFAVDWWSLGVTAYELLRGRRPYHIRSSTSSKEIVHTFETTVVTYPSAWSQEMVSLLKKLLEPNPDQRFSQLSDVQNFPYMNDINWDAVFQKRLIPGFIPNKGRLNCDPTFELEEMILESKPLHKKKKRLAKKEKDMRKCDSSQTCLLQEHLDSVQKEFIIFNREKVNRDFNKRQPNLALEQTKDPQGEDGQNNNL
T12 sequence (P10721 26-976 V559D): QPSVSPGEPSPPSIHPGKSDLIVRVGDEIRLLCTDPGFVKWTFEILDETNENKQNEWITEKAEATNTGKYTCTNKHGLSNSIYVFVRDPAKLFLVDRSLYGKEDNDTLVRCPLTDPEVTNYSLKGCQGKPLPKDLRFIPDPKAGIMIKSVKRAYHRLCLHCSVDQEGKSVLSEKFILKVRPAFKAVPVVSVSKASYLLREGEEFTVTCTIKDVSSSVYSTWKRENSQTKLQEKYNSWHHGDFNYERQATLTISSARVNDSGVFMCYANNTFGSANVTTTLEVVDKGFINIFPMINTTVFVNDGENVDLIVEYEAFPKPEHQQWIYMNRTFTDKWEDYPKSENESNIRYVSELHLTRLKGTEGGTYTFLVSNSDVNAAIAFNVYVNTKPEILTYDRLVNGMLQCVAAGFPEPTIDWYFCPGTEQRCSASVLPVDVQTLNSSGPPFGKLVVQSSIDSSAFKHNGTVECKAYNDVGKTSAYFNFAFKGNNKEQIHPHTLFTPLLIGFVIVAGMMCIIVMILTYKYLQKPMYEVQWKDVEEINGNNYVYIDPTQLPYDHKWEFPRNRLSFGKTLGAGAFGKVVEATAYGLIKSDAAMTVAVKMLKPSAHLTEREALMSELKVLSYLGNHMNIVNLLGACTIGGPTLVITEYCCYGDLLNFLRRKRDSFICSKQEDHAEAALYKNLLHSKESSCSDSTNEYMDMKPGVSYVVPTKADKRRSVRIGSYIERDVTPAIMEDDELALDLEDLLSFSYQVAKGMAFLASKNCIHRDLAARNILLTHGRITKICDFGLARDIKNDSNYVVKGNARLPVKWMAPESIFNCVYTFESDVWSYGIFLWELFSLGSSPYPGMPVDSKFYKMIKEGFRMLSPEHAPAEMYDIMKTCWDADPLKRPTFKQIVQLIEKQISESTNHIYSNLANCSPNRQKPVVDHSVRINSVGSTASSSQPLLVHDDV
T7 sequence (Q13043 whole entry): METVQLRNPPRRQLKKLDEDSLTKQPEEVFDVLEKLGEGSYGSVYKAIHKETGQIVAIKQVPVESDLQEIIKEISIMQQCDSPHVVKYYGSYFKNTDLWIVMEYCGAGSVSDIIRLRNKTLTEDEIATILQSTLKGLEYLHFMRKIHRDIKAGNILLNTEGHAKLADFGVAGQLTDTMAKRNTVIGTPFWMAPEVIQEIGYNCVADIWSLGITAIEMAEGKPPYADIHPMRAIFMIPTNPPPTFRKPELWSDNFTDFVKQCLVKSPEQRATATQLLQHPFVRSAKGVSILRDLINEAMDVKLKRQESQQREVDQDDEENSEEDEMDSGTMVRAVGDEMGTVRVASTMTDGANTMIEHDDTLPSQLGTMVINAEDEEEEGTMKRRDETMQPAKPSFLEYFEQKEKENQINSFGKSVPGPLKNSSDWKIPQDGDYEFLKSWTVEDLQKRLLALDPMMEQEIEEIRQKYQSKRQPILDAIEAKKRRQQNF
T2 sequence (P31751 whole entry): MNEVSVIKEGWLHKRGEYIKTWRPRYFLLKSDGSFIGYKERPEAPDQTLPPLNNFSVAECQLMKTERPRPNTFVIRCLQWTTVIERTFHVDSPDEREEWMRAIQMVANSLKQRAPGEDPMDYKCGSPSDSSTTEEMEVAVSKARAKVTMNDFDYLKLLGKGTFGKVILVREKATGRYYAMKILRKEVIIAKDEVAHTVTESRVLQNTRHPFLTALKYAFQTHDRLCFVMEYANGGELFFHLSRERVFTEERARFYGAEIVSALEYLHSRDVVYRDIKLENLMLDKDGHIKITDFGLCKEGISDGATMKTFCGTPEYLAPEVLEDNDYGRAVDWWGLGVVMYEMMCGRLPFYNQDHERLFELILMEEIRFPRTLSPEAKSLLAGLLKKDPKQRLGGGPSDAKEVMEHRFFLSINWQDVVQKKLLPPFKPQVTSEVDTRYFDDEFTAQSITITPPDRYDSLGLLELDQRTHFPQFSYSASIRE
T13 sequence (P00519 242-493 F317L limits assumed): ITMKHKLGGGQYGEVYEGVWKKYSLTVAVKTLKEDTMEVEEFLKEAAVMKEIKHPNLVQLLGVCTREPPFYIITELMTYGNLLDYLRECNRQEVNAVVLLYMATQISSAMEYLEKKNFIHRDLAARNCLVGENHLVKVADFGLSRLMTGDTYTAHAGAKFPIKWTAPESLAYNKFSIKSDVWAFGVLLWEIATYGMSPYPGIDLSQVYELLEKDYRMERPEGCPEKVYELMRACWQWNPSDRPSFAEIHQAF
T9 sequence (P51955 whole entry): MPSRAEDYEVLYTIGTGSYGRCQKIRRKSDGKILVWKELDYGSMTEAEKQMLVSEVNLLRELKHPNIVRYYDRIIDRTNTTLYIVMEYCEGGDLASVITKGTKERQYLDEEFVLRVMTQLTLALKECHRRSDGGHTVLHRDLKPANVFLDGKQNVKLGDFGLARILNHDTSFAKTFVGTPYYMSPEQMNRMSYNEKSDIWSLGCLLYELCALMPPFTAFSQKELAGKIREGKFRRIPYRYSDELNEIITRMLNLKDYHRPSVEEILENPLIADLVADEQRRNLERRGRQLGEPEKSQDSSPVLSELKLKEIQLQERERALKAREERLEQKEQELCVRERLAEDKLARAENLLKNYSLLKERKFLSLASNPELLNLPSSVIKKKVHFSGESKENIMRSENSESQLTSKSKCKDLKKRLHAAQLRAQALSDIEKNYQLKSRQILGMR

On to `CCc1ccc2c(c1)C1(NN=C(c3cccc4ccccc34)S1)C(=O)N2` (centres unmarked) [OGM1, 5-ethyl-5′-naphthalen-1-ylspiro[1H-indole-3,2′-3H-1,3,4-thiadiazole]-2-one], for which the Antagonism is listed as 0.1 at ChemR23 (10 uM); 5 on D1 (10 uM); 70.8 on GPR68 (10 uM); 1.7 on Secretin (10 uM); 5.1 at MRGX2 (10 uM). The Agonism is on record as 0 at ChemR23 (12.5 uM); 0 on D1 (12.5 uM); −7.6 on GPR68 (12.5 uM); 0.9 at Secretin (12.5 uM); −0.1 on MRGX2 (12.5 uM). For the same molecule, the remaining binding at 10 µM at AKT2 came out at 93%; on YANK1, 100%; on LRRK2(G2019S), 100%; at FER, 100%; on MST1, 100%; on NEK2, 78%. Moreover, the remaining binding at 10 µM in [1] was determined as 41%; on MKNK2, 91%; at KIT(V559D) it was 71%; in assay [2], 96%; on DAPK2 it was 89%; on EGFR(G719C) it was 100%. Moreover, in the assay with FLT3(ITD), the “% Control” value was 100%.
As to `CCc1ccc2c(c1)C1(NN=C(c3ccccc3)S1)C(=O)N2` (centres unmarked) [OGM2], the “TER decline caused by low pH (6.5)” value with endothelial cell (EC) (GPR4i 5 uM) was “abolished TER decline”. Moreover, the “acidic media (pH 6.5)-induced TNFα, VCAM1 and ICAM1 expression” value in the assay with endothelial cell (EC) (OGM2 3 uM, Ogerin 2 uM) is given as “abolished”. In addition, the Class result with T-47D was “Mildly”. Further, in the assay on T-47D (72 hours), the “% Survival 2 μM OGM” value was found to be 76.4% and the “% Survival 10 μM OGM” value was found to be 61.7%. In addition, the CC50 with T-47D (Homo sapiens, T47D, 72 hours, read-out: LC50 (the source's name)) was greater than 10 µM.

These data come from patent US20240327364A1, “THERAPEUTIC TARGETING OF GPR68 TO INDUCE FERROPTOSIS” (University Of Maryland, Baltimore, priority 2023, published 2024).
